Measurements: PMC6336783, “Crystal structure of the multidrug resistance regulator RamR complexed with bile acids” (Scientific Reports, 2019)

How the values were obtained:
[1] = tested on: ramA mRNA levels in ∆ramR Salmonella strain; type: cell-based, Salmonella enterica serovar Typhimurium; conditions: LB broth with 5 mM bile acid, qRT-PCR
Method: (§1) The bacterial strains and the plasmids used in this study are listed in Supplementary Table 3. The S. enterica serovar Typhimurium strains were the wild-type strain ATCC14028s[21] and its ∆ramR mutant (which was produced as described previously)[22]. Bacterial strains were grown at 37 °C in Luria–Bertani broth supplemented, when appropriate, with ampicillin (100 µg/ml), kanamycin (25 µg/ml) or chloramphenicol (25 µg/ml).
(§2) Bacteria were grown until mid-log phase (OD600 of 0.6) and harvested by centrifugation. Pelleted cells were stabilized with RNAprotect Bacteria Reagent (Qiagen) and stored at −80 °C until needed. Total RNA was extracted using an RNeasy Mini kit (Qiagen). Removal of residual genomic DNA was performed using a Turbo DNA-free kit (Ambion) and checked by negative PCR amplification of the chromosomal sequence. RNA integrity was verified by electrophoresis on a 1% agarose gel. Total RNA (1.5 µg) was reverse-transcribed using random hexamers and the Superscript III First Strand Synthesis System (Applied Biosystems). The expression level of each gene of interest was calculated as the average of the results from three independent cDNA samples. For each cDNA sample and each gene, qRT-PCR runs were performed in duplicated wells and the primers used for qRT-PCR are listed in Supplementary Table 4. The cycling conditions were: 95 °C for 5 min followed by 40 cycles of 95 °C for 10 s and then 60 °C for 15 s. After each run, amplification specificity and the absence of primer dimers were verified using a dissociation curve, acquired by heating the PCR products from 60 °C to 95 °C. The relative quantities of transcripts were determined using a standard curve and normalized against the geometric mean of three reference genes (gmk, gyrB and rrs).

RamR = biological target: T1, RamR (Salmonella typhimurium, UniProt Q8ZR43); experiment: SPR binding of bile acids to immobilized RamR; parameters: species or system Salmonella enterica serovar Typhimurium
T1 construct: made in house
T1 sequence (Q8ZR43 1-193): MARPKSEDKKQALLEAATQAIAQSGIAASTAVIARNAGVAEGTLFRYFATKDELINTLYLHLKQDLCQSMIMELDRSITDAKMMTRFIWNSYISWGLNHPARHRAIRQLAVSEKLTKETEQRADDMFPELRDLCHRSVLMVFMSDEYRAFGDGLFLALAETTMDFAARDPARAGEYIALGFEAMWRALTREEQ
Method: Because cholic and chenodeoxycholic acids induce ramA in a RamR-dependent manner, we hypothesized that these compounds are recognized by RamR. To test the possibility that cholic and chenodeoxycholic acids may bind to RamR, we employed surface plasmon resonance (SPR) analysis using a Biacore T200 instrument (GE Healthcare).
Dissociation was also recorded for 2 min.

[2] = biological target: interaction between RamR and PramA (Salmonella typhimurium, UniProt Q8ZR43); experiment: SPR inhibition of RamR binding to the 100-bp DNA fragment with the RamR-binding site; conditions: for inhibition at 500 µM: read-out: inhibition of the interaction between RamR and the DNA fragment
[3] = tested on: ramA mRNA levels in wild-type S. Typhimurium strain; type: cell-based, Salmonella enterica serovar Typhimurium; conditions: LB broth with 5 mM bile acid, qRT-PCR
Method: as §1, §2

[4] = biological target: the molecule itself; experiment: crystal structure; co-crystals of RamR with a 5-fold molar excess of cholic or chenodeoxycholic acid; hanging drops, vapor diffusion, 25 °C; 20 mM sodium phosphate (pH 6.6), 75 mM NaCl, 2 mM DTT

Molecule: C[C@H](CCC(=O)O)[C@H]1CC[C@H]2[C@@H]3[C@H](O)C[C@@H]4C[C@H](O)CC[C@]4(C)[C@H]3CC[C@]12C [chenodeoxycholic acid, 3α, 7α-dihydroxy-5β-cholan-24-oic acid]
- fold difference in ramA mRNA levels relative to the control in the same strain [1]: 0.8 fold
- Kd (RamR): 65.3 µM
- IC50 [2]: 19.2 µM
- inhibition at 500 µM [2]: ≥ 90%

Molecule: C[C@H](CCC(=O)O)[C@H]1CC[C@H]2[C@@H]3[C@H](O)C[C@@H]4C[C@H](O)CC[C@]4(C)[C@H]3C[C@H](O)[C@]12C [cholic acid, 3α, 7α, 12α-trihydroxy-5β-cholan-24-oic acid]
- fold difference in ramA mRNA levels relative to the control in the same strain [1]: 1.6 fold
- Kd (RamR): 60.5 µM
- IC50 [2]: 33 µM
- inhibition at 500 µM [2]: ≥ 90%

Molecule: C[C@H](CCC(=O)O)[C@H]1CC[C@H]2[C@@H]3CC[C@@H]4C[C@H](O)CC[C@]4(C)[C@H]3C[C@H](O)[C@]12C [deoxycholic acid, 3α, 12αdihydroxy-5β-cholan-24-oic acid]
- fold difference in ramA mRNA levels relative to the control in the same strain [3]: 1.7 fold
- fold difference in ramA mRNA levels relative to the control in the same strain [1]: 2.7 fold
- IC50 [2]: 318 µM
- inhibition at 500 µM [2]: ~50%

B1: RamR (natural protein, Salmonella enterica serovar Typhimurium)
chain: ARPKSEDKKQALLEAATQAIAQSGIAASTAVIARNAGVAEGTLFRYFATKDELINTLYLHLKQDLCQSMIMELDRSITDAKMMTRFIWNSYISWGLNHPARHRAIRQLAVSEKLTKETEQRADDMFPELRDLCHRSVLMVFMSDEYRAFGDGLFLALAETTMDFAARDPARAGEYIALGFEAMWRALTREEQ
notes: RamR, TetR-family transcriptional repressor of ramA, Salmonella enterica serovar Typhimurium; ligand-free structure PDB 3VVX; also called multidrug resistance regulator RamR; local transcriptional repressor RamR
- binding result [4]: binds
